Assay results taken from patent US10688093B2, “Methods, compositions, and uses of novel Fyn kinase inhibitors” (priority 2015, dated 2020).

target: full-length recombinant human FYN A (Homo sapiens (Human), UniProt P06241); experiment: ADP-Glo Kinase Assay of FYN kinase inhibition; format: biochemical; conditions: secondary screen, re-synthesized and expanded compounds
Method in brief: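 ADP-Glo read-out of peptide phosphorylation after 90 min RT with 12.5 pmol ATP and 100 pg 12-mer substrate. Enzyme was N-GST full-length human FYN A from insect cells, 3 pg, pre-incubated 30 min with compound, 10 points from 10 μM top, 3-fold steps; IC50 from curve.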

Sequence of full-length recombinant human FYN A (P06241 whole entry): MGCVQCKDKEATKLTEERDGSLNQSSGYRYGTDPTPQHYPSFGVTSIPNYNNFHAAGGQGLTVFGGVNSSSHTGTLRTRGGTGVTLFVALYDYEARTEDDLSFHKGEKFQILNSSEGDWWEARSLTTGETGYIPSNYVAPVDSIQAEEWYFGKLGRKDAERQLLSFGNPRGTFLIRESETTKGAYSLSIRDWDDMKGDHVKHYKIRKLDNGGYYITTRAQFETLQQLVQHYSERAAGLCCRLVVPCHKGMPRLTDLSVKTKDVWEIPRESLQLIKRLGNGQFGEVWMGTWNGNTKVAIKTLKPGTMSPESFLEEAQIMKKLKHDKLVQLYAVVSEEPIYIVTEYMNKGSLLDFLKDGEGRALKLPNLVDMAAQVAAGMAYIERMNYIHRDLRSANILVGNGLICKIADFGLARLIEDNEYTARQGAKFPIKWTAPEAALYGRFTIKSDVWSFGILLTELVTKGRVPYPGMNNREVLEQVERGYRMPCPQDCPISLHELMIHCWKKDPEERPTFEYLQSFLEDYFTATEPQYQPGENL

Compound	IC50 [nM]
CN(C)CCNC(=O)c1ccc(-c2cn3c(-c4ccc(O)cc4)cnc3cn2)cc1 [BF000333881, N-[2-(dimethyl-amino)-ethyl]-4-[3-(4-hydroxy-phenyl)-imidazo[1,2-a]pyrazin-6-yl]-benzamide]	486
O=C(NCCO)c1ccc(-c2cn3c(-c4ccc(O)cc4)cnc3cn2)cc1 [BF000333882, N-(2-hydroxy-ethyl)-4-[3-(4-hydroxy-phenyl)-imidazo[1,2-a]pyrazin-6-yl]benzamide]	740
COc1cc(-c2cnc3cnc(-c4ccc(C(=O)NCCCN(C)C)cc4)cn23)ccc1O [BF000334019, N-[3-(dimethyl-amino)-propyl]-4-[3-(4-hydroxy-3-methoxy-phenyl)-imidazo[1,2-a]pyrazin-6-yl]benzamide]	647
COc1cc(-c2cnc3cnc(-c4cccc(C(=O)NCCO)c4)cn23)ccc1O [BF000334020, N-(2-hydroxy-ethyl)-3-[3-(4-hydroxy-3-methoxy-phenyl)-imidazo[1,2-a]pyrazin-6-yl]benzamide]	1280
COc1cc(-c2cnc3cnc(-c4ccc(C(=O)NCCN(C)C)cc4)cn23)ccc1O [BF000334023, N-[2-(dimethyl-amino)ethyl]-4-[3-(4-hydroxy-3-methoxy-phenyl)-imidazo[1,2-a]pyrazin-6-yl]benzamide]	337
CN(C)CCNC(=O)c1ccc(-c2cn3c(-c4ccc(Oc5ccccc5)cc4)cnc3cn2)cc1 [BF000334031, N-[2-(dimethyl-amino)ethyl]-4-[3-(4-phenoxy-phenyl)-imidazo[1,2-a]pyrazin-6-yl]-benzamide]	222
O=C(NCCO)c1ccc(-c2cn3c(-c4ccc(Oc5ccccc5)cc4)cnc3cn2)cc1 [BF000334032, N-(2-hydroxy-ethyl)-4-[3-(4-phenoxy-phenyl)-imidazo-[1,2-a]-pyrazin-6-yl]benzamide]	464
COc1cc(-c2cc(-c3ccc(N4CCNCC4)cc3)cnc2N)ccc1O [BF000707279, 4-[2-amino-5-(4-piperazin-1-ylphenyl)-3-pyridyl]-2-methoxy-phenol]	60.9
CN1CCN(c2ccc(-c3cnc(N)c(-c4ccc(O)cc4)c3)cc2)CC1 [BF000710044, 4-[2-amino-5-[4-(4-methyl-piperazin-1-yl)phenyl]-3-pyridyl]-phenol]	521
c1ccc(CNc2nn3c(-c4cccnc4)cnc3s2)cc1 [BF000714845, N-benzyl-5-(3-pyridyl)-imidazo[2,1-b][1,3,4]-thiadiazol-2-amine]	634
CN(C)C(=O)c1cccc(-c2cnc3sc(NCc4ccccc4)nn23)c1 [BF000714847, 3-[2-(benzyl-amino)-imidazo[2,1-b][1,3,4]-thiadiazol-5-yl]-N,N-dimethyl-benzamide]	1230
COc1cncc(-c2cnc3sc(NCc4ccccc4)nn23)c1 [BF000714862, N-benzyl-5-(5-methoxy-3-pyridyl)-imidazo[2,1-b][1,3,4]-thiadiazol-2-amine]	217
COc1cncc(-c2cnc3sc(NCC4CCOCC4)nn23)c1 [BF000714923, 5-(5-methoxy-3-pyridyl)-N-(tetra-hydropyran-4-ylmethyl)-imidazo[2,1-b][1,3,4]-thiadiazol-2-amine]	293
COc1cncc(-c2cnc3sc(NCc4cccs4)nn23)c1 [BF000714968, 5-(5-methoxy-3-pyridyl)-N-(2-thienyl-methyl)-imidazo[2,1-b][1,3,4]-thiadiazol-2-amine]	437
COc1cncc(-c2cnc3sc(NCc4ccc5c(c4)OCO5)nn23)c1 [BF000714981, N-(1,3-benzodioxol-5-ylmethyl)-5-(5-methoxy-3-pyridyl)-imidazo[2,1-b][1,3,4]-thiadiazol-2-amine]	289
CN(C)C(=O)c1cccc(-c2cnc3sc(NCC4CCOCC4)nn23)c1 [BF000715802, N,N-dimethyl-3-[2-(tetra-hydropyran-4-ylmethyl-amino)-imidazo[2,1-b][1,3,4]-thiadiazol-5-yl]benzamide]	1360
COc1ccc(-c2cnc3sc(NC4CCC(O)CC4)nn23)cc1OC (centres unmarked) [BF000717406, 4-[[5-(3,4-dimethoxy-phenyl)-imidazo[2,1-b][1,3,4]-thiadiazol-2-yl]amino]-cyclohexanol]	440
CN(C)C(=O)c1cccc(-c2cnc3sc(NC4CCC(O)CC4)nn23)c1 (centres unmarked) [BF000717418, 3-[2-[(4-hydroxy-cyclohexyl)-amino]-imidazo[2,1-b][1,3,4]-thiadiazol-5-yl]-N,N-dimethyl-benzamide]	288
COc1cc(-c2cnc3sc(NCC4CCOCC4)nn23)ccc1O [BF000717555, 2-methoxy-4-[2-(tetrahydro-pyran-4-ylmethyl-amino)-imidazo[2,1-b][1,3,4]-thiadiazol-5-yl]phenol]	710
OCCCNc1ccc2ncc(-c3ccncc3)n2n1 [BF000722253, 3-[[3-(4-pyridyl)-imidazo[1,2-b]pyridazin-6-yl]amino]-propan-1-ol]	538
COc1cc(-c2ccc3ncc(-c4cccc(NC(C)=O)c4)n3n2)ccc1O [BF000726183, N-(3-[6-(4-hydroxy-3-methoxy-phenyl)-imidazo[1,2-b]pyridazin-3-yl]phenyl]-acatamide]	167
OCc1cccc(-c2cnc3ccc(-c4cccc(O)c4)nn23)c1 [BF000726195]	1170

Compound	IC50 [nM]
COc1ccc(-c2ccc3ncc(-c4cccc(NC(C)=O)c4)n3n2)cc1OC [BF000726345, N-[3-[6-(3,4-dimethoxy-phenyl)-imidazo[1,2-a]pyridazin-3-yl]phenyl]-acatamide]	313
CC(=O)Nc1cccc(-c2ccc3ncc(-c4cccc(NC(C)=O)c4)n3n2)c1 [BF000726346, N-[3-[3-(3-acetamido-phenyl)-imidazo[1,2-b]pyridazin-6-yl]phenyl]-acetamide]	648
Oc1cccc(-c2cnc3ccc(-c4ccncc4)nn23)c1 [BF000726352, 3-[6-(4-pyridyl)-imidazo[1,2-b]pyridazin-3-yl]phenol]	342
OCc1cccc(-c2cnc3ccc(-c4ccncc4)nn23)c1 [BF000726364, [3-[6-(4-pyridyl)-imidpzo[1,2-b]pyridazin-3-yl]phenyl]-methanol]	973
COc1ccc(-c2ccc3ncc(-c4cccc(CO)c4)n3n2)cc1OC [BF000726366, [3-[6-(3,4-dimethoxy-phenyl)-imidazo[1,2-b]pyridazin-3-yl]phenyl]-methanol]	893
CC(=O)Nc1cccc(-c2ccc3ncc(-c4cccc(CO)c4)n3n2)c1 [BF000726367, N-[3-[3-[3-(hydroxy-methyl)phenyl]-imidazo[1,2-b]pyridazin-6-yl]phenyl]-acetamide]	1520
COc1cc(-c2cnc3ccc(-c4ccc(OC)c(OC)c4)nn23)ccc1O [BF000726453, 4-[6-(3,4-dimethoxy-phenyl)-imidazo[l,2-b]pyridazin-3-yl]-2-methoxy-phenol]	39.4
COc1cc(-c2cnc3ccc(-c4cccc(NC(C)=O)c4)nn23)ccc1O [BF000726454, N-[3-[3-(4-hydroxy-3-methoxy-phenyl)-imidazo[1,2-b]pyridazin-6-yl]phenyl]-acetamide]	104
CC(=O)c1cccc(-c2cnc3ccc(-c4cccc(CO)c4)nn23)c1 [BF000726471, 1-[3-[6-[3-(hydroxy-methyl)-phenyl]-imidazo[1,2-b]pyridazin-3-yl]phenyl]-ethanone]	291
COc1cc(-c2cnc3ccc(-c4ccc(CO)cc4)nn23)ccc1O [BF000726486, 4-[6-[4-(hydroxy-methyl)-phenyl]-imidazo[1,2-b]pyridazin-3-yl]-2-methoxy-phenol]	61.8
COc1cc(-c2cnc3ccc(-c4cccc(CO)c4)nn23)ccc1O [BF000726487, 4-[6-[3-(hydroxy-methyl)-phenyl]-imidazo[1,2-b]pyridazin-3-yl]-2-methoxy-phenol]	63
COc1cncc(-c2cnc3sc(NC4CCC(O)CC4)nn23)c1 (centres unmarked) [BF000802724, 4-[[5-(5-methoxy-3-pyridyl)-imidazo[2,1-b][1,3,4]-thiadiazol-2-yl]amino]-cyclohexanol]	301
CN(C)CCCNC(=O)c1ccc(-c2cn3c(-c4ccc(Oc5ccccc5)cc4)cnc3cn2)cc1 [BF000816927, N-[3-(dimethyl-amino)-propyl]-4-[3-(4-phenoxy-phenyl)imidazo[1,2-a]pyrazin-6-yl]benzamide]	247
CC(C)[C@@H](CO)Nc1ccc2ncc(-c3ccncc3)n2n1 [BF000817097, (2S)-3-methyl-2-[[3-(4-pyridyl)-imidazo[1,2-b]pyridazin-6-yl]amino]-butan-1-ol]	631
CC(=O)c1cccc(-c2cnc3ccc(NCCCO)nn23)c1 [BF000817098, 1-[3-[6-(3-hydroxy-propyl-amino)-imdazo[1,2-b]pyridazin-3-yl]phenyl]-ethanone]	645
c1cc(-c2cnc3ccc(NC4CCOCC4)nn23)ccn1 [BF000817099, 3-(4-pyridyl)-N-tetrahydro-pyran-4-yl-imidazo[1,2-b]pyridazin-6-amine]	270
CC(=O)Nc1cccc(-c2cnc3ccc(-c4ccncc4)nn23)c1 [BF000817142, N-[3-[6-(4-pyridyl)-imidazo[1,2-b]pyridazin-3-yl]phenyl]-acetamide]	741
COc1cc(-c2cnc3ccc(-c4ccncc4)nn23)ccc1O [BF000817169, 2-methoxy-4-[6-(4-pyridyl)-imidazo[1,2-b]pyridazin-3-yl]phenol]	79.4
c1ccc(CNc2ccc3ncc(-c4ccncc4)n3n2)nc1 [BF000817170, 3-(4-pyridyl)-N-(2-pyridyl-methyl)-imidazo[1,2-b]pyridazin-6-amine]	170
COc1cc(-c2cnc(N)c(-c3cc(OC)c(OC)c(OC)c3)c2)cc(OC)c1OC [BF000817175, 3,5-bis(3,4,5-trimethoxy-phenyl)-pyridin-2-amine]	85.4
COc1cc(-c2cc(-c3ccc(N4CCN(C(C)C)CC4)cc3)cnc2N)ccc1O [BF000817185]	78.1
COc1cc(-c2ccc3ncc(-c4ccc(O)c(OC)c4)n3n2)ccc1O [BF000817186, 4-[3-(4-hydroxy-3-methoxy-phenyl)-imidazo[1,2-b]pyridazin-6-yl]-2-methoxy-phenol]	29.4
